Values joined by “and” are separate entries in the source; they are usually repeats but may differ in a detail not shown here. Equal values may be shown once.
Columns and labels:
SHR = test: Role of NO in the MAP response to constant Tempol infusion (L-NAME or norepinephrine pretreatment); type: in vivo, rat
SHR and WKY rats = test: Two weeks of oral Tempol in the drinking water: MAP, HR, renal hemodynamics, excretion, 8-ISO; type: in vivo, rat; conditions: Tempol 1 mM in drinking water
Experimental: Thereafter, WKY and SHR were anesthetized with thiobutabarbital (100 mg/kg, i.p., Inactin, Research Biochemicals International) and maintained at 37° C. on a servo-controlled heated rodent operating table. A tracheostomy was performed with polyethylene PE-240 tubing and the left jugular vein and carotid artery were cannulated with PE-50 tubing. A 1% albumin solution in 0.154 M NaCl was infused at 2 ml/h, i.v. to maintain a euvolemic state. A midline incision was made and the left renal artery was isolated. A blood flow probe was placed around the renal artery and connected to a transit-time blood flowmeter (IRB, Transonic Systems, Inc.). We have previously shown that this method of measuring real-time changes in renal blood flow (RBF) is valid in the rat. Mean arterial pressure (MAP) and heart rate (HR) were continuously recorded from the carotid artery using a Statham pressure transducer (model P23, Gould Instruments) and MACLab data acquisition software. Glomerular filtration rate (GFR) was determined from the clearance of [^3H]-inulin. Following surgery and a 60 min equilibration period, MAP, HR, GFR, and RBF were measured over 30 minutes and the data was averaged.

CC1(C)CC(O)CC(C)(C)N1[O] [Tempol, 4-hydroxy-2,2,6,6-tetramethyl-1-piperidinyloxy]
Decrease in MAP (SHR; SHR infused with norepinephrine, Tempol infusion): 14%
MAP during Tempol infusion (SHR; SHR infused with norepinephrine, Tempol infusion, P<0.05): 161±7 mm Hg
MAP during Tempol infusion (SHR; SHR pretreated with L-NAME, Tempol infusion 30 minutes, unchanged): 186±4 mm Hg
MAP (SHR; SHR, saline vehicle pretreatment, Tempol infusion 180 μmol·kg^−1·min^−1 (so in the source) for 30 minutes): 121±17 mm Hg
Decrease in MAP (SHR; SHR, saline vehicle pretreatment, Tempol infusion for 30 minutes, P<0.05): 32%
RBF (SHR and WKY rats; SHR, 2 weeks): 5.6 ± 0.5 mL/min
RVR (SHR and WKY rats; SHR, 2 weeks): 26.4 ± 2.6 mm Hg/ml/min
UNaV (SHR and WKY rats; SHR, 2 weeks): 2.1 ± 0.2 mmol/24 hr
UV (SHR and WKY rats; SHR, 2 weeks): 15.2 ± 1.7 ml/24 hr
Decrease in RVR (tendency, not significant) (SHR and WKY rats; SHR, two weeks): 16%
GFR (SHR and WKY rats; SHR, two weeks): 1.9 ± 0.3 mL/min and 2.0 ± 0.2 mL/min
Heart rate (SHR and WKY rats; SHR, two weeks): 414±9 bts/min
Increase in GFR (SHR and WKY rats; SHR, two weeks): 17%
MAP (SHR and WKY rats; SHR, two weeks): 134±6 mm Hg
UV8-ISO (8-iso-prostaglandin F2α excretion) (SHR and WKY rats; SHR, two weeks): 6.0±0.7 ng/24 hr
Decrease in MAP compared to normal SHR (SHR and WKY rats; SHR, two weeks, p<0.05): 18%
Decrease in UV8-ISO (8-iso-prostaglandin F2α excretion) (SHR and WKY rats; SHR, two weeks, p<0.05): 39%
Body weight gain (SHR and WKY rats; 2 weeks, WKY and SHR pooled): 66±3 g/14 days
Food intake (SHR and WKY rats; 2 weeks, WKY and SHR pooled): 24 ± 1 g/day
Water intake (SHR and WKY rats; 2 weeks, WKY and SHR pooled, p<0.05 vs control): 43 ± 3 mL/day
GFR (SHR and WKY rats; WKY, 2 weeks): 2.5 ± 0.4 mL/min
RBF (SHR and WKY rats; WKY, 2 weeks): 8.8 ± 0.9 mL/min
RVR (SHR and WKY rats; WKY, 2 weeks): 14.2 ± 1.4 mm Hg/ml/min
UNaV (SHR and WKY rats; WKY, 2 weeks): 2.4 ± 0.6 mmol/24 hr
UV (SHR and WKY rats; WKY, 2 weeks): 16.7 ± 2.3 ml/24 hr
Heart rate (SHR and WKY rats; WKY, two weeks): 373±8 bts/min
MAP (SHR and WKY rats; WKY, two weeks): 118±7 mm Hg
